Data taken from patent publication US4183909A, “Phenylglycine-containing new peptides with gastrine effects and a process for the preparation thereof” (Richter Gedeon Vegyeszeti Gyar Rt., priority 1976, dated 1980).
Square brackets hold non-standard residues; d marks the D form. Peptide text beside a SMILES is read from it. * marks the point of attachment. dPhg = N[C@@H](C(=O)O)c1ccccc1; Phg = N[C@H](C(=O)O)c1ccccc1; X1 = CC(C)(C)OC(=O)NOCC(=O)*

Tests used:
[1] = test system: gastric acid secretion; test: Gastric acid secretion increasing effect, administered parenterally or enterally (methods of Ghosh and Schild and of Lai, modified by Pissidis and Clark); type: in vivo
Protocol: The biological activities of the new compounds according to the invention were tested by the methods of Ghosh and Schild (Br. J. Pharmac. Chemoth. 13, 54 1958) and Lai (Gut 5, 327 1964), modified by Pissidis and Clark (Gut 8, 196 1967). The pharmacological tests have shown that the new compounds, when administered intravenously, increase the gastric acid secretion to a great extent. […] It is also remarkable that some of the new compounds highly increase the gastric acid secretion after resorption from the rectum.

[2] = test system: gastric acid secretion; conditions: in vivo; cited from earlier work

With `CSCC[C@H](NC(=O)[C@H](Cc1c[nH]c2ccccc12)NC(=O)CONC(=O)OC(C)(C)C)C(=O)N[C@@H](CC(=O)O)C(=O)N[C@@H](C(N)=O)c1ccccc1` [BOC-OGly Met D, 2-(tert.-Butoxycarbonyl-aminooxy)-acetyl-L-tryptophyl-L-methionyl-L-aspartyl-D-phenylglycine-amide] (X1-WMD[dPhg]-NH2) the “Gastric acid secretion increasing effect in comparison with that of a 0.2 μg/100 g i.v. dosage of pentagastrin” value (“Gastric acid secretion increasing effect” for short) ([1]; 0.2 μg i.v.) was 28 and the “Gastric acid secretion increasing effect” value ([1]; 2.0 μg i.v.) was 50.

With `CSCC[C@H](NC(=O)[C@H](Cc1c[nH]c2ccccc12)NC(=O)CCNC(=O)OC(C)(C)C)C(=O)N[C@@H](CC(=O)O)C(=O)N[C@@H](Cc1ccccc1)C(N)=O` [pentagastrin, BOC-β-Ala-Trp-Met-Asp-Phe-NH2, reference compound] the “Effect on gastric acid secretion” value ([1]; administered enterally, even in higher dosages) was “does not increase the gastric acid secretion”.

In the case of H-Trp-Met-Asp-Phe-NH2, the “Gastric acid secretion stimulating effect relative to the total hormone (gastrin)” value [2] is given as “lower by about one order of magnitude”.

For `CSCC[C@H](NC(=O)[C@H](Cc1c[nH]c2ccccc12)NC(=O)CONC(=O)OC(C)(C)C)C(=O)N[C@@H](CC(=O)O)C(=O)N[C@H](C(N)=O)c1ccccc1` [BOC-OGly Met L, 2-(tert.-Butoxycarbonyl-aminooxy)-acetyl-L-tryptophyl-L-methionyl-L-aspartyl-L-phenylglycine-amide] (X1-WMD[Phg]-NH2), the “Gastric acid secretion increasing effect” value ([1]; 2.0 μg i.v.) was 116, the “Gastric acid secretion increasing effect” value ([1]; 20 μg intestinal (text: 20 μg/100 g body weight)) was 124 and the “Gastric acid secretion increasing effect” value ([1]; 20 μg rectal) was 38.
